Laboratory results: patent publication US12121524B2, “DNA-PK inhibitors” (VERTEX PHARMACEUTICALS INCORPORATED, priority 2018, dated 2024)

The molecules below were run against DNA-PK (Homo sapiens, UniProt P78527) (assay: DNA-PK inhibition assay (standard radiometric 33P-ATP kinase assay)). Conditions: 100 μM ATP, approx. 6 nM DNA-PK.
Type: biochemical
Procedure: Compounds were screened for their ability to inhibit DNA-PK kinase using a standard radiometric assay. Briefly, in this kinase assay the transfer of the terminal ^33P-phosphate in ^33P-ATP to a peptide substrate is interrogated. The assay was carried out in 384-well plates to a final volume of 50 μL per well containing approximately 6 nM DNA-PK, 50 mM HEPES (pH 7.5), 10 mM MgCl2, 25 mM NaCl, 0.01% BSA, 1 mM DTT, 10 μg/mL sheared double-stranded DNA (obtained from Sigma), 0.8 mg/mL DNA-PK peptide (Glu-Pro-Pro-Leu-Ser-Gln-Glu-Ala-Phe-Ala-Asp-Leu-Trp-Lys-Lys-Lys, obtained from American Peptide), and 100 μM ATP.
Accordingly, compounds of the invention were dissolved in DMSO to make 10 mM initial stock solutions. Serial dilutions in DMSO were then made to obtain the final solutions for the assay. A 0.75 μL aliquot of DMSO or inhibitor in DMSO was added to each well, followed by the addition of ATP substrate solution containing ^33P-ATP (obtained from Perkin Elmer). The reaction was started by the addition of DNA-PK, peptide and ds-DNA. After 45 min, the reaction was quenched with 25 μL of 5% phosphoric acid. The reaction mixture was transferred to MultiScreen HTS 384-well PH plates (obtained from Millipore), allowed to bind for one hour, and washed three times with 1% phosphoric acid. Following the addition of 50 μL of Ultima Gold™ high efficiency scintillant (obtained from Perkin Elmer), the samples were counted in a Packard TopCount NXT Microplate Scintillation and Luminescence Counter (Packard BioScience). The Ki values were calculated using Microsoft Excel Solver macros to fit the data to the kinetic model for competitive tight-binding inhibition.

| Ki [nM] | SMILES |
| --- | --- |
| < 100 | c1cnc(N[C@H]2CC[C@@H](Nc3cc(N4CCOCC4)cc4nccnc34)CC2)nc1 [Compound 18, N^1-(7-morpholinoquinoxalin-5-yl)-N^4-(pyrimidin-2-yl)cyclohexane-1,4-diamine] |
| < 100 | c1cnc(N[C@H]2CC[C@@H](Nc3cc(N4CCOCC4)cc4nonc34)CC2)nc1 [Compound 23, (cis)-N^1-(6-morpholinobenzo[c][1,2,5]oxadiazol-4-yl)-N^4-(pyrimidin-2-yl)cyclohexane-1,4-diamine] |
| < 100 | c1ccc(N[C@H]2CC[C@@H](Nc3cc(N4CCOCC4)cc4nccnc34)CC2)nc1 [Compound 24] |
| < 100 | c1cnc(N[C@H]2CC[C@@H](Nc3cc(N4CCOCC4)cc4nccnc34)CC2)cn1 [Compound 27] |
| < 100 | c1cnc(N[C@H]2CC[C@@H](Oc3cc(N4CCOCC4)cc4nccnc34)CC2)nc1 [Compound 28, N-((cis)-4-((7-morpholinoquinoxalin-5-yl)oxy)cyclohexyl)pyrimidin-2-amine] |
| < 100 | O=C(O)c1cnc(N[C@H]2CC[C@@H](Nc3cc(N4CCOCC4)cc4nccnc34)CC2)nc1 [Compound 29] |
| < 100 | c1ncc(N[C@H]2CC[C@@H](Nc3cc(N4CCOCC4)cc4nccnc34)CC2)cn1 [Compound 30] |
| < 100 | COC(=O)c1cnc(N[C@H]2CC[C@@H](Nc3cc(N4CCOCC4)cc4nccnc34)CC2)cn1 [Compound 32] |
| < 100 | c1cnc(N[C@H]2CC[C@@H](Oc3cc(N4CCOCC4)cc4nccnc34)CC2)cn1 [Compound 33] |
| < 100 | C1=C(c2cc(O[C@H]3CC[C@@H](Nc4ncccn4)CC3)c3nccnc3c2)CCOC1 [Compound 36, N-[(cis)-4-[7-(3,6-dihydro-2H-pyran-4-yl)quinoxalin-5-yl]oxycyclohexyl]pyrimidin-2-amine] |
| < 100 | Fc1cnc(N[C@H]2CC[C@@H](Oc3cc(N4CCOCC4)cc4nccnc34)CC2)nc1 [Compound 37] |
| < 100 | Clc1cc(N[C@H]2CC[C@@H](Oc3cc(N4CCOCC4)cc4nccnc34)CC2)ncn1 [Compound 39] |
| < 100 | N#Cc1cnc(N[C@H]2CC[C@@H](Oc3cc(N4CCOCC4)cc4nccnc34)CC2)nc1 [Compound 44] |
| < 100 | Brc1cnc(N[C@H]2CC[C@@H](Oc3cc(N4CCOCC4)cc4nccnc34)CC2)nc1 [Compound 45] |
| < 100 | c1cnc(O[C@H]2CC[C@@H](Nc3cc(N4CCOCC4)cc4nccnc34)CC2)nc1 [Compound 46] |
| < 100 | Fc1ccnc(N[C@H]2CC[C@@H](Oc3cc(N4CCOCC4)cc4nccnc34)CC2)n1 [Compound 49] |
| < 100 | Fc1nccc(N[C@H]2CC[C@@H](Oc3cc(N4CCOCC4)cc4nccnc34)CC2)n1 [Compound 50] |
| < 100 | Fc1cc(N[C@H]2CC[C@@H](Oc3cc(N4CCOCC4)cc4nccnc34)CC2)ncn1 [Compound 51] |
| < 100 | Cc1cc(C)nc(N[C@H]2CC[C@@H](Oc3cc(N4CCOCC4)cc4nccnc34)CC2)n1 [Compound 52] |
| < 100 | c1cnc(N[C@H]2CC[C@@H](Oc3cc(N4C[C@H]5CC[C@@H](C4)O5)cc4nccnc34)CC2)nc1 [Compound 53] |
| < 100 | COc1cncc(N[C@H]2CC[C@@H](Oc3cc(N4CCOCC4)cc4nccnc34)CC2)n1 [Compound 54] |

| Ki [nM] | SMILES |
| --- | --- |
| < 100 | N#Cc1ccc(N[C@H]2CC[C@@H](Oc3cc(N4CCOCC4)cc4nccnc34)CC2)nn1 [Compound 55] |
| < 100 | N#Cc1ccc(N[C@H]2CC[C@@H](Oc3cc(N4CCOCC4)cc4nccnc34)CC2)nc1 [Compound 59] |
| < 100 | Fc1ccc(N[C@H]2CC[C@@H](Oc3cc(N4CCOCC4)cc4nccnc34)CC2)nn1 [Compound 60] |
| < 100 | O=C(N[C@H]1CC[C@@H](Oc2cc(N3CCOCC3)cc3nccnc23)CC1)C1CC1 [Compound 61] |
| < 100 | CCCCc1cnc2cc(N3CCOCC3)cc(O[C@H]3CC[C@@H](Nc4ncccn4)CC3)c2n1 [Compound 63] |
| < 100 | CCCCc1cnc2cc(N3CCOCC3)cc(O[C@H]3CC[C@@H](Nc4ncc(Br)cn4)CC3)c2n1 [Compound 64] |
| < 100 | NC(=O)c1cnc(N[C@H]2CC[C@@H](Oc3cc(N4CCOCC4)cc4nccnc34)CC2)nc1 [Compound 65] |
| < 100 | CCOCCOc1cnc(N[C@H]2CC[C@@H](Oc3cc(N4CCOCC4)cc4nccnc34)CC2)nc1 [Compound 66] |
| < 100 | CN(C)c1cnc(N[C@H]2CC[C@@H](Oc3cc(N4CCOCC4)cc4nccnc34)CC2)nc1 [Compound 67] |
| < 100 | O=C(O)c1cnc(N[C@H]2CC[C@@H](Oc3cc(N4CCOCC4)cc4nccnc34)CC2)nc1 [Compound 69] |
| < 100 | CNC(=O)c1cnc(N[C@H]2CC[C@@H](Oc3cc(N4CCOCC4)cc4nccnc34)CC2)nc1 [Compound 71] |
| < 100 | CN(C)C(=O)c1cnc(N[C@H]2CC[C@@H](Oc3cc(N4CCOCC4)cc4nccnc34)CC2)nc1 [Compound 72] |
| < 100 | N#Cc1ccnc(N[C@H]2CC[C@@H](Oc3cc(N4CCOCC4)cc4nccnc34)CC2)c1 [Compound 84] |
| < 100 | N#Cc1cccnc1N[C@H]1CC[C@@H](Oc2cc(N3CCOCC3)cc3nccnc23)CC1 [Compound 87] |
| < 100 | O=C(O)c1ccnc(N[C@H]2CC[C@@H](Oc3cc(N4CCOCC4)cc4nccnc34)CC2)n1 [Compound 93] |
| < 100 | OCc1cnc(N[C@H]2CC[C@@H](Oc3cc(N4CCOCC4)cc4nccnc34)CC2)nc1 [Compound 94] |
| < 100 | Fc1cc(F)nc(N[C@H]2CC[C@@H](Oc3cc(N4CCOCC4)cc4nccnc34)CC2)n1 [Compound 104] |
| < 100 | CN(C)C(=O)c1cnc(N[C@H]2CC[C@@H](Oc3cc(N4CCOCC4)cc4nccnc34)CC2)cn1 [Compound 108] |
| < 100 | c1cnc2c(O[C@H]3CC[C@@H](Nc4ncc(C5CC5)cn4)CC3)cc(N3CCOCC3)cc2n1 [Compound 109] |
| < 100 | COc1cnc(N[C@H]2CC[C@@H](Oc3cc(N4CCOCC4)cc4nccnc34)CC2)nc1 [Compound 134, 5-methoxy-N-((cis)-4-((7-morpholinoquinoxalin-5-yl)oxy)cyclohexyl)pyrimidin-2-amine] |
| < 100 | CCOCCc1cnc(N[C@H]2CC[C@@H](Oc3cc(N4CCOCC4)cc4nccnc34)CC2)nc1 [Compound 135] |

| Ki [nM] | SMILES |
| --- | --- |
| < 100 | O=C(O)c1ccc(N[C@H]2CC[C@@H](Oc3cc(N4CCOCC4)cc4nccnc34)CC2)nc1 [Compound 139] |
| < 100 | NC(=O)c1ccc(N[C@H]2CC[C@@H](Oc3cc(N4CCOCC4)cc4nccnc34)CC2)nc1 [Compound 140] |
| < 100 | Cc1cnc(N[C@H]2CC[C@@H](Oc3cc(N4CCOCC4)cc4nccnc34)CC2)nc1 [Compound 142] |
| < 100 | Nc1cnc(N[C@H]2CC[C@@H](Oc3cc(N4CCOCC4)cc4nccnc34)CC2)nc1 [Compound 143] |
| < 100 | CNC(=O)c1ccc(N[C@H]2CC[C@@H](Oc3cc(N4CCOCC4)cc4nccnc34)CC2)nc1 [Compound 144] |
| < 100 | CN(C)C(=O)c1ccc(N[C@H]2CC[C@@H](Oc3cc(N4CCOCC4)cc4nccnc34)CC2)nc1 [Compound 145] |
| < 100 | COC(=O)c1ccc(N[C@H]2CC[C@@H](Oc3cc(N4CCOCC4)cc4nccnc34)CC2)nc1 [Compound 146] |
| < 100 | CCN(CC)c1cnc(N[C@H]2CC[C@@H](Oc3cc(N4CCOCC4)cc4nccnc34)CC2)nc1 [Compound 155] |
| < 100 | Oc1cnc(N[C@H]2CC[C@@H](Oc3cc(N4CCOCC4)cc4nccnc34)CC2)nc1 [Compound 158] |
| < 100 | OCc1ccc(N[C@H]2CC[C@@H](Oc3cc(N4CCOCC4)cc4nccnc34)CC2)nc1 [Compound 160] |
| < 100 | COCc1cnc(N[C@H]2CC[C@@H](Oc3cc(N4CCOCC4)cc4nccnc34)CC2)nc1 [Compound 161] |
| < 100 | CC(C)NC(=O)c1cnc(N[C@H]2CC[C@@H](Oc3cc(N4CCOCC4)cc4nccnc34)CC2)nc1 [Compound 162] |
| < 100 | Brc1ccc(N[C@H]2CC[C@@H](Oc3cc(N4CCOCC4)cc4nccnc34)CC2)nc1 [Compound 164] |
| < 100 | OC1CCN(c2ccnc(N[C@H]3CC[C@@H](Oc4cc(N5CCOCC5)cc5nccnc45)CC3)n2)C1 (some centres unmarked) [Compound 187] |
| < 100 | FC(F)(F)c1ccc(N[C@H]2CC[C@@H](Oc3cc(N4CCOCC4)cc4nccnc34)CC2)nc1 [Compound 189] |
| < 100 | Cc1cnc2c(O[C@H]3CC[C@@H](Nc4ncccn4)CC3)cc(N3CCOCC3)cc2n1 [Compound 190] |
| < 100 | Cc1cnc2cc(N3CCOCC3)cc(O[C@H]3CC[C@@H](Nc4ncccn4)CC3)c2n1 [Compound 191] |
| < 100 | COc1cc(N[C@H]2CC[C@@H](Oc3cc(N4CCOCC4)cc4nccnc34)CC2)ncn1 [Compound 194] |
| < 100 | N#Cc1cccc(N[C@H]2CC[C@@H](Oc3cc(N4CCOCC4)cc4nccnc34)CC2)n1 [Compound 195] |
| < 100 | Nc1ccc(N[C@H]2CC[C@@H](Oc3cc(N4CCOCC4)cc4nccnc34)CC2)nc1 [Compound 197] |
